This note sets out measurements from patent US20230091848A1, “DISEASE DETECTION AND TREATMENT BASED ON PHENYLACETYL GLUTAMINE LEVELS” (The Cleveland Clinic Foundation, priority 2020, published 2023).

Numbered stars: 1 amine (or outer) side, 2 acyl side, 3 side chain; on linkers, the order of the positions; unused ones are H or OH. Bridge positions count the residues as written; N and C are the ends. Square brackets hold non-standard residues; d marks the D form. Peptide text beside a SMILES is read from it. X1 = CC(=O)NC(C(=O)OC(C(C)C)C(N[*:1])C(=O)[*:2])C(O)C(C)C; PhLac = O=C(O)[CH](O)Cc1ccccc1; NMeT = CN[CH](C(=O)O)[CH](C)O; NMeA = CN[CH](C)C(=O)O; NMeDha = C=C(NC)C(=O)O

The target in assay [1] is T1, α2A ADR (Homo sapiens, UniProt P08913).
T1 construct: DYK (FLAG, DYKDDDDK) (N); host or cells: HEK293 (transient, Lipofectamine 3000)
T1 sequence (P08913 1-465): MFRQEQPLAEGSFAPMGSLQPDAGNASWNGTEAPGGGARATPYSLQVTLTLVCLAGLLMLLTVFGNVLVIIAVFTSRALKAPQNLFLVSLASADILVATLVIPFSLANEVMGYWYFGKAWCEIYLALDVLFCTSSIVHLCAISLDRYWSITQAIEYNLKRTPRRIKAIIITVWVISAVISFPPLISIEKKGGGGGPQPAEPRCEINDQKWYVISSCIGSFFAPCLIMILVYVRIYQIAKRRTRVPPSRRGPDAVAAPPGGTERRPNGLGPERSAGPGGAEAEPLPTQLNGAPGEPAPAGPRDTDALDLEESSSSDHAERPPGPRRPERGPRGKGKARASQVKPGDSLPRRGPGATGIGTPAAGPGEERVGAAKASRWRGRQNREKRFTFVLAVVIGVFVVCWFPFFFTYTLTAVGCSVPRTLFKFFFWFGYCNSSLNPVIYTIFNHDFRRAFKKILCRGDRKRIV
Nature of the assay: DMR in α2A-HEK293 (transient) cells. It counts as cell-based. The method, then:
The cells were grown in DMEM (100 μL) media supplemented with FBS (10%), penicillin (100 U/mL) and streptomycin (100 μg/mL) in a humidified atmosphere at 37° C. in 5% CO2 for 1 day before proceeding for the DMR experiments. For gain of function studies of α2A ADR, parental HEK293 cells were transfected with pcDNA3.1(+)-N-DYK empty vector or with pcDNA3.1(+)-ADRA2A-N-DYK clone (clone id: OHu19050C-GenScript) using Lipofactamine 3000 Transfection kit-Invitrogen (Cat. L3000008). DMR studies were performed on transiently transfected cells after 2 days post transfection. Prior to run the DMR experiment, cells were washed with 1×HBSS buffer with HEPES (20 mM, pH 7.4) and allowed to temperature equilibrate for 1 h at room temperature in 100 μL of the same buffer. Basal DMR response were graphed for around 15 min to obtain a baseline read that defines the zero level and also ensures the signal is stable.

Assay [2] deals with T2, α2B ADR (Homo sapiens, UniProt P18089).
T2 construct: expressed in transfected cells
T2 sequence (P18089 1-450): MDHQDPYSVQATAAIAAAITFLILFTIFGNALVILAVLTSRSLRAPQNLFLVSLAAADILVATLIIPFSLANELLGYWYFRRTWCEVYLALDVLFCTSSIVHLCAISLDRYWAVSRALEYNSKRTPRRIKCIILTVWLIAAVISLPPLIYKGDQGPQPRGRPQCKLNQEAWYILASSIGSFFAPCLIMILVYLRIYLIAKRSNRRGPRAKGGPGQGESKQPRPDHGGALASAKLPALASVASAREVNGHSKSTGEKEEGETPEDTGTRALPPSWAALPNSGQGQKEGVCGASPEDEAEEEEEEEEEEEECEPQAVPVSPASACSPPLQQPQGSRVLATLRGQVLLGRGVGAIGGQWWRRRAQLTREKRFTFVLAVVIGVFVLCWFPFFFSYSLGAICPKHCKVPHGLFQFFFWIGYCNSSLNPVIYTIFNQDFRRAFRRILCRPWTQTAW
The assay is described as follows: DMR in α2B-HEK293 (stable) cells. It counts as cell-based.

For assay [3], the system named is MEG01 cells. Nature of the assay: Dynamic mass redistribution (DMR) in MEG01 cells. The note with it: for DMR response to ATP after ADR inhibitors: ATP 50 μM; for PAGln-induced DMR response after ADR inhibitors: 30 min. It counts as cell-based, human. How it is done:
(§1) Before proceeding for the experiments, cells were subjected to overnight incubation in reduced serum media opti-MEM. […] The cells were briefly centrifuged at room temperature at low speed (100 g for 10-15 sec) to allow settling down the cells at the bottom of the plate. After that, cells were allowed to temperature equilibrate for 1 h at room temperature prior to run DMR measurement. Firstly, basal DMR responses were graphed for around 15 min to obtain a baseline read that defines the zero level and also ensures the signal is stable. […] DMR response signal was recorded for 60-90 minutes post compound of interest addition.

Assay [4] relates to MEG01 cells. The assay is described as follows: cAMP assay in MEG01 cells. The format is cell-based, human. The method, then:
Real-time (RT) PCR in MEG01 cells: Total RNA was isolated from MEG01 cells following TRIZOL RNA isolation protocol post 40 h of siRNA transfection. […] Real time (RT) PCR was carried out following TaqMan Gene Expression Assays protocol using RT primers and probes of ADRA2A (assay Id Hs01099503_s1), ADRA2B (assay Id Hs00265081 s1) and ADRB2 (assay Id Hs00240532_s1) from ThermoFisher Scientific. cAMP assay in MEG01, Platelets and HEK293 cells: Intracellular cAMP levels were measured using CatchPoint Cyclic-AMP Fluorescent Assay Kit from molecular devices (Cat. R8089). Briefly, MEG01 cells were washed with 1×HBSS buffer with HEPES (20 mM; pH 7.4) and re-suspended in stimulation buffer (1×HBSS, HEPES (20 mM); pH 7.4, IBMX (0.5 mM), Rolipram (0.1 mM) and BSA (0.1%)). The cells were further seeded into 96 well cell culture plates with a density of ˜100 k cells per well in 100 μL stimulation buffer. Similarly, human washed platelets re-suspended very gently in stimulation buffer and seeded into a 96-well cell culture plates with ˜4-6 million platelets per well in 100 μL stimulation buffer. Both the MEG01 cells and platelets were kept thereafter at 37° C. incubator for 10 min before addition of the inhibitors or test compounds. Following incubation with stimulation buffer, 10 μL (10× concentration) of modulators/inhibitors (when necessary) were added and kept for 15 min at 37° C. […] The test compounds were made in buffer T (1×HBSS, HEPES (20 mM); pH 7.4, IBMX (0.5 mM) and Rolipram (0.1 mM)). The reaction was stopped by adding 50 μL of lysis buffer (provided in the kit CatchPoint Cyclic-AMP Fluorescent Assay Kit Cat. R8089-Molecular Devices), further added with IBMX (0.5 mM) and Rolipram (0.1 mM)) and agitated for 10 min in a plate shaker to facilitate cell lysis. Lysed cells are immediately proceeded to cAMP assay. For the quantification of cAMP, the lysed sample (40 μL), buffer control and cAMP calibrators were added in appropriate wells of a 96-well clear bottom, black wall cAMP assay plates (provided in the kit). Thereafter, reconstituted rabbit anti-cAMP antibody (40 μL) was added to all the wells and mix for 5 min on a plate shaker to ensure mixing. In the next step, reconstituted HRP-cAMP conjugate (40 μL) was added to every well, mixed properly and kept at room temperature for 2 h. The plate contents were aspirated thereafter and washed with wash buffer (300 μL (provided in the kit)) 4 times. Spotlight red substrate (provided in the kit) was added to each well minimizing the time between starting and finishing in dark. The plate was covered with aluminum foil and left at room temperature for at least 10 min before reading fluorescence intensity in a FlexStation 3 Multi-Mode Microplate Reader-Molecular devices. […] For cAMP assay in adherent cell lines, parental HEK293, and β2-HEK293 (stable) cells were seeded into 96-well cell culture microplates with approximately 50 k cells per well in DMEM (100 μL) media supplemented with FBS (10%), penicillin (100 U/mL) and streptomycin (100 μg/mL) in a humidified atmosphere at 37° C. in 5% CO2. Cells were grown for 24 h before proceeding for cAMP experiment following similar method as described for MEG01 cells. Intracellular Ca^2+ measurement: Intracellular Ca^2+ in MEG01, HEL92.1.7, parental HEK293, β2-HEK293 (stable) cells, empty vector (EV) transfected HEK293 cells, ADRA2A transfected HEK293 cells and in α2B-HEK293 stable cells was measured using FLIPR Calcium 5 Assay Kit-Molecular devices (Cat. R8186). […]

For assay [5], the system named is washed human platelets. The assay is described as follows: cAMP assay in washed human platelets. It counts as cell-based. The method, then:
Real-time (RT) PCR in MEG01 cells: Total RNA was isolated from MEG01 cells following TRIZOL RNA isolation protocol post 40 h of siRNA transfection. […] Real time (RT) PCR was carried out following TaqMan Gene Expression Assays protocol using RT primers and probes of ADRA2A (assay Id Hs01099503_s1), ADRA2B (assay Id Hs00265081 s1) and ADRB2 (assay Id Hs00240532_s1) from ThermoFisher Scientific. cAMP assay in MEG01, Platelets and HEK293 cells: Intracellular cAMP levels were measured using CatchPoint Cyclic-AMP Fluorescent Assay Kit from molecular devices (Cat. R8089). Briefly, MEG01 cells were washed with 1×HBSS buffer with HEPES (20 mM; pH 7.4) and re-suspended in stimulation buffer (1×HBSS, HEPES (20 mM); pH 7.4, IBMX (0.5 mM), Rolipram (0.1 mM) and BSA (0.1%)). The cells were further seeded into 96 well cell culture plates with a density of ˜100 k cells per well in 100 μL stimulation buffer. Similarly, human washed platelets re-suspended very gently in stimulation buffer and seeded into a 96-well cell culture plates with ˜4-6 million platelets per well in 100 μL stimulation buffer. Both the MEG01 cells and platelets were kept thereafter at 37° C. incubator for 10 min before addition of the inhibitors or test compounds. Following incubation with stimulation buffer, 10 μL (10× concentration) of modulators/inhibitors (when necessary) were added and kept for 15 min at 37° C. […] For the quantification of cAMP, the lysed sample (40 μL), buffer control and cAMP calibrators were added in appropriate wells of a 96-well clear bottom, black wall cAMP assay plates (provided in the kit). […] The plate was covered with aluminum foil and left at room temperature for at least 10 min before reading fluorescence intensity in a FlexStation 3 Multi-Mode Microplate Reader-Molecular devices. […] Intracellular Ca^2+ measurement: Intracellular Ca^2+ in MEG01, HEL92.1.7, parental HEK293, β2-HEK293 (stable) cells, empty vector (EV) transfected HEK293 cells, ADRA2A transfected HEK293 cells and in α2B-HEK293 stable cells was measured using FLIPR Calcium 5 Assay Kit-Molecular devices (Cat. R8186). […]
In general terms: cAMP levels reflect the balance of adenylyl cyclase and phosphodiesterase activity.

Assay [6] deals with human platelet rich plasma (PRP). Nature of the assay: Platelet aggregometry in platelet rich plasma. It counts as cell-based. The note with it: inhibitor 10 μM; PAGln 100 μM; ADP 2 μM. How it is done:
ADP (up to 4 μM), TRAP6 (up to 10 μM) and collagen (up to 1.0 μg/mL) were used as indicated to initiate aggregation with constant stirring (600 rpm).

Assay [7] deals with HEL92.1.7 cells. The assay is described as follows: Dynamic mass redistribution (DMR) in HEL92.1.7 cells. The format is cell-based, human. The method, then:
as §1

[8] abbreviates: vs parental HEK293, PAGln 100 μM, B-HT933 50 μM.

On to `CCN1CCc2nc(N)oc2CC1` [B-HT933], for which the “agonist-evoked DMR response” value in assay [1] (setting [8]) and in assay [2] (setting [8]) was “elevated B-HT933-elicited DMR response” throughout.
As for `Cc1ccc(OCC(O)C(C)NC(C)C)c2c1CCC2` (stereo not drawn) [ICI118,551], the “DMR response to ATP after ADR inhibitors” value in assay [3] (inhibitor 10 μM) is recorded as “remained unchanged”. In addition, the “DMR response of isoproterenol (ISO) after ADR inhibitors” value in assay [3] (ISO 10 μM, inhibitor 10 μM) was “diminished”. Besides, the “PAGln-induced DMR response after ADR inhibitors” value in assay [3] (PAGln 100 μM, inhibitor 10 μM) is reported as “substantially reduced”. In addition, the “intracellular cAMP production after ISO treatment, with ADR inhibitors” value in assay [4] and in assay [5] was “reduced” each time. Also, the “PAGln induced intracellular cAMP production after ADR inhibitors” value in assay [4] (PAGln 100 μM, 5 min exposure, inhibitor 10 μM) is on record as “inhibited PAGln (5 min exposure) induced intracellular cAMP production”; in assay [5] (PAGln 5 min exposure) it was “inhibited PAGln (5 min exposure) induced intracellular cAMP production”.
`COC1(C2=NCCN2)COc2ccccc2O1` (stereo not drawn) [RX821002]: the “PAGln induced hyperresponsiveness of platelet aggregation” value in assay [6] is on record as “attenuated the PAGln induced hyperresponsiveness”. Also, the “DMR response to ATP after ADR inhibitors” value in assay [3] (inhibitor 10 μM) is listed as “remained unchanged”. For the same molecule, in assay [3] (B-HT933 50 μM, inhibitor 10 μM), the “DMR response of B-HT933 after ADR inhibitor” value is “appropriately inhibited”. The “PAGln-induced DMR response after ADR inhibitors” value in assay [3] (PAGln 100 μM, inhibitor 10 μM) is listed as “substantially reduced”. The “B-HT933-elicited DMR response after ADR inhibitor” value in assay [1] and in assay [2] was “attenuated by RX821002” in each case. The “PAGln-induced DMR response after ADR inhibitor” value in assay [1] (inhibitor 10 μM, 30 min) is on record as “reversed”; in assay [2] (inhibitor 10 μM, 30 min), “reversed”.
For `CN=c1nc(-c2ccccc2)n(-c2ccccc2)s1` [SCH-202676], the “PAGln-induced DMR response after G-protein modulators” value in assay [3] (PAGln 100 μM, PTX 100 ng/mL, CTX 1 μg/mL, YM-254890 0.5 μM, SCH-202676 1 μM) is “significantly reduced”. Moreover, the “PAGln-evoked cAMP production after GPCR modulators” value in assay [4] (pretreatment with modulator) and in assay [5] (pretreatment with modulator) was “inhibited PAGln-evoked cAMP production” each time.
Turning to `C=C1C(=O)NC(C)C(=O)N(C)C(C)C(=O)NC(C(OC(=O)C(NC(C)=O)C(O)C(C)C)C(C)C)C(=O)N(C)C(C(C)OC)C(=O)OC(C)C(NC(C)=O)C(=O)OC(Cc2ccccc2)C(=O)N1C` (stereo not drawn) [YM-254890] (Ac-T[PhLac][NMeDha]A[NMeA][X1][NMeT](Me); ester 1-C; configuration not given here), in assay [7], the “PAGln induced DMR response after G-protein modulators” value was “significant reduction in PAGln induced DMR response”.
